# Measured values as given in US20220160812A1, “A PHARMACEUTICALLY ACTIVE SUBSTANCE” (Cytopharma GmbH, priority 2019, published 2022).
# How the values were obtained:
# [1] = test system: A375 melanoma cells; experiment: subG1 cell cycle FACS apoptosis assay, A375 melanoma cells; assay type: cell-based, human; details: about 24 hours, FIG. 3
# Protocol: (§1) To transfer adherent cells (A375 and BxPC-3 cells) after culture, cells are washed twice with PBS. To detach the cells, the enzyme biotase is used according to the manufacturer's instructions. For this purpose, after washing with PBS, the cells are mixed with biotase (5 ml of biotase solution per 75 cm^2 surface of the cell culture bottles) and incubated for 5 min at 37 degrees Celsius, and the biotase is separated by centrifugation. Cells cultivated in suspension (MEC-1 and lymphocytes) were transferred by dilution. The cells are suspended in culture medium and counted, each time 1.5×10^5 cells/cm^2 are seeded in 48-well plates and cultured for between 1.5 and 24 hours at 37 degrees Celsius, 5% CO2. Peptides are pre-diluted from stock solution with culture medium and 200 μl of peptide solution added so that final concentrations of 30 to 500 μM peptide are present in at most 1% (v/v) DMSO. As control solutions, culture medium without peptide (DMSO-containing) in culture medium or etoposide solution is added. After incubating the cells for several hours, the cell supernatant is transferred to a FACS tube for each batch and, after washing the cells with PBS, the wash solution is added. Then the cells are incubated with 200 μl of biotase solution for 10 min, 37° C., the cells with the biotase are also transferred to the FACS tube and the cells are collected by centrifugation for 5 min. The cell pellet is suspended in 500 μl of serum-free culture medium, then 1.5 ml of cold 80% ethanol (ethanol/PBS-80/20, v/v, stored at −20° C.) is added, the FACS tubes sealed and stored at −20 degrees Celsius for 15 to 18 h. Thereafter, the cells are centrifuged for 5 minutes at 120 g, suspended after removal of the supernatant in 2 ml PBS and incubated at 37 degrees Celsius for 30 minutes. After re-centrifugation, the cells are suspended in 0.5 ml DAPI solution and incubated for 15 min at 20 degrees Celsius in the dark. Thereafter, the cells are stored dark for a maximum of four hours in an ice bath, followed by the FACS analysis.
# The adherent cells (A375 and BxPC-3 cells and MDA-MB-231, respectively) are seeded 24 hours before induction in 6-well plates in culture medium. For this, the cells are washed with PBS, then incubated with trypsin/EDTA solution at 37 degrees Celsius and suspended in culture medium. The 6-well plates are loaded with 1×10^5 cells/cm^2 in culture medium and the cells incubated for 24 hours until induction with the peptides in the incubator. For induction, the peptides are diluted in fresh culture medium. As control solutions, culture medium without peptide (DMSO-containing) in culture medium or etoposide solution is added. The cells are washed with PBS. Thereafter the peptide solution in culture medium is added to the cells. After incubation in the incubator (37° C., 5% CO2) between 1.5 and 24 hours, the cell supernatant is transferred to 15 ml centrifuge tubes, the cells are washed with 0.75 ml PBS and then with 0.5 ml versene solution. Both washings are combined with the cell supernatant. The cells are then added with 0.5 ml of trypsin/EDTA solution and incubated at about 37° C. for at most 10 minutes until the cells detached. The cell suspension is combined with cell supernatant and washings and centrifuged at about 130 g for about 10 minutes. After removing the supernatant, the cells are suspended in 400 μl of cell culture medium (without serum) and mixed with 1.2 ml of 80% ethanol/20% PBS (v/v) and incubated for 1 to 7 days at −20° C. For analysis, the cells are centrifuged at 130 g for 10 min, suspended in 2 ml PBS, and centrifuged again for 5 min. The cells are suspended in 700 μl PI buffer and incubated for 10 min at 37° C. in the dark. Subsequently, the cells are stored dark for a maximum of four hours in an ice bath, then the FACS analysis is performed.
# The proportion of cells which have died was determined by two methods, both rely on the analysis of cells by flow cytometry, often called FACS analysis. […]
# [2] = test system: A375 melanoma cells; experiment: cell vitality FACS analysis (region R-1, FSC/SSC), A375 melanoma cells; assay type: cell-based, human; details: A375, Protocol A, about 24 hours, FIG. 7; for decrease of cell vitality, comparison in words: any concentration (100, 200, 500 μM)
# Protocol: as §1
# For suspension cells (MEC-1 and lymphocytes/PBMC) and for adherent cells analyzed according to Protocol A, FACS analysis to determine subG1 cell cycle and vital cell fractions was done on a Becton Dickinson LSR Fortessa flow cytometer. The analysis by FACS including subG1 and vital cell analysis according to protocol B was performed with a Cytomics FC 500 MPL flow cytometer from Beckman Coulter.
# Changes of the cell form during cell death by apoptosis are documented in the literature (Lizard et al. 1995; Taga et al. 2000; Vermes et al., 2000). The protocols for cell cultivation, treatment and preparation of the cells before flow cytometry is detailed in separate examples. Cell suspensions of cell lines A375, BxPC-3, MEC-1 or of primary lymphocytes (see separate example of lymphocyte preparation) are analyzed by flow cytometry. The data are further analyzed by using the program “Flowing Software 2”. The data of light scattering are drawn in a two-dimensional FSC/SSC plot. Since the position in the FSC/SSC plot of apoptotic cells changes relative to non-apoptotic cells (Vermes et al., 2000), a region (R-1) is drawn representing mainly non-apoptotic cells and excluding cells with both low FSC and low SSC values and excluding cells with high values of FSC and/or SSC (FIG. 1). The regions are individually selected for each cell type (A375, BxPC-3, MEC-1 and primary lymphocytes). The percentage of untreated non-apoptotic cells in the region R-1 relative to total cells is set to 100%, representing 100% vital cells. The fraction (%) of cells in R-1 relative to the total number of cells in case of cell treatment by certain peptides or by cytotoxic drugs results in cell vitality, below 100%, thereby indicating a loss of cell vitality by the treatment. […]
substance,measurement,setting,value
s-q-t-v-q-k-w-m-v-v-y-f-r [SEQID No 38],"apoptosis efficiency (subG1), comparison in words","[1]; A375, Protocol A, 100, 200, 500 μM",clear improvement over peptide SEQID NO 27 at a concentration below 500 μM and over Peptide SEQID NO 39 at a concentration above 100 μM
same,apoptosis efficiency (subG1) in view of Peptide SEQ C1,"[1]; A375, Protocol A, any concentration (100, 200, 500 μM)",at least tenfold
same,efficiency (decrease of cell vitality) in view of Peptide SEQ C1,[2]; 200 μM,at least threefold
same,efficiency (decrease of cell vitality) in view of Peptide SEQ C1,[2]; 500 μM,at least tenfold
same,"decrease of cell vitality, comparison in words",[2],clear improvement over peptides SEQID NO 27 and SEQID NO 39 at any concentration
same,"decrease of cell vitality, comparison in words",[2]; listed as SEQID NO 38,significantly greater decrease than the peptide of the prior art (Peptide SEQ C1)
